“Also recorded” adds a separate entry of the source.
Tested on: K7M2-luc2 pOS (VCAM-1/α4β1 interaction)
Assay: Established pOS after K7M2-luc2 i.v., weekly intranasal blockade of VCAM-1/a4 from Day 7
Format: in vivo, Balb/c mice
Details: 50 μg i.n. weekly from Day 7
Procedure: FIGS. 9A-C illustrate targeting site-specific VCAM-1/a4 interaction blunted established pOS growth in vivo. (A) Balb/c mice were inoculated with 5×10^5 K7M2-luc2 i.v. on Day 0, and then treated with i.n. PBS, 50 μg iVCAM-1p, or 50 μg PS/2 (anti-a4) antibody weekly starting on Day 7. (A) representative images of mice up to 35 days. […] (C) 60% and 80% of pOS mice remained tumor free 1 month after weekly i.n. treatment with PS/2 antibody (filled circle) or iVCAM-1p (filled triangle), respectively. N=5-8 in each cohort.
To strengthen the crucial link between tVCAM-1 and α4β1 (FIGS. 5-8) and pOS survival, we performed pilot experiments to test whether direct functional blockade of VCAM-1/α4β1 interaction in the lung would result in the same pOS outcome as observed with MACs depletion. In collaboration with Nicole Steinmetz in CWRU School of Engineering, we treated mice (inoculated 7 days prior with a lethal dose of K7M2 i.v.) with weekly i.n. administration of 50 μg of a VCAM-1 inhibitory peptide (iVCAM-1p; amino acid sequence: VHPKQHR (SEQ ID NO: 1)). […] These pilot observations strengthen our hypothesis that pOS-MAC critically interact through the VCAM-1/α4 axis. […] As we administered mAb via i.n. route, much of the reported side effects of chronic systemic Natalizumab exposure (such as hepatic injury and progressive multifocal leukoencephalopathy) can potentially be limited by reducing the dose and targeting locally in the lung.

VHPKQHR [iVCAM-1p]
pOS tumor incidence: dramatic decreased
tumor burden (relative BLI intensity, Day 7 BLI set as 1): dramatic decreased; also recorded: reduced tumor burden
mice remaining tumor free (1 month after treatment): 80%
